pIC50: −log10 of the molar value.

What is called pIC50 is the negative decadic logarithm of the IC50, by convention in mol/L.

This assay has as its system U937 cells. The experiment in a line: Cellular assay in U937 cells to measure the activity of RIPK1-inhibitors on cell death (necroptosis). It is filed as cell-based. Particulars: Homo sapiens, U-937, 50 μM zVAD.fmk and 100 ng/ml recombinant human TNFα, overnight (18 to 24 hrs), MTS readout. The protocol:
Absorbance of formazan was read at 490 nm. The inhibitory activity of the test compound was quantified in a concentration response curve (CRC) experiment.
Compounds were obtained as 10 mM stock solutions and were diluted 1 to 10 volumes with DMSO to yield a 1 mM solution. From this solution 2 μl were diluted with 998 μl growth medium.
U937 cells were cultured in RPMI1640 Glutamax and 10% heat inactivated FBS. […] 50 μl of compound dilutions, as described in Cellular assay in U937 cells, were added and the cell suspension incubated overnight (18 to 24 hrs) at 37° C., 5% CO2 in a humidified atmosphere (95% rH).
CellTiter 96 Aqueous reagent was mixed (100 μl PMS (phenazine methosulfate) solution/2 ml MTS (3-(4,5-[…])-5-(3-carboxymethoxyphenyl)-2-(4-sulfophenyl)-2H-tetrazolium, inner salt) solution) and 20 μl were added per well. After 4 hrs incubation at 37° C. (5% CO2 95% rH) optical density was measured at 490 nm on a microplate reader (Tecan Infinite M1000).
The % inhibition is expressed as percentage of the maximal inhibition value obtained in the absence of TNFα/zVAD.fmc.

As to `Cc1ncc([C@@H]2CCON2C(=O)C2CCN(c3nccc(C4CCO4)n3)CC2)cc1F` (single isomer, unassigned) [Example 98], the pIC50 was 6.57.

In the case of `O=C(C1CCN(c2cc(-c3cccnc3)ncn2)CC1)N1OCC[C@H]1c1cncc(F)c1` [Example 1, (S)-(3-(5-fluoropyridin-3-yl)isoxazolidin-2-yl)(1-(6-(pyridin-3-yl)pyrimidin-4-yl)piperidin-4-yl)methanone], the negative logarithm of the IC50 (pIC50) was 7.43.

For `O=C1OCCN1c1nc(N2CCC(C(=O)N3OCC[C@H]3c3cnccn3)CC2)ncc1F` [Example 5, 3-[5-fluoro-2-[4-[(3S)-3-pyrazin-2-ylisoxazolidine-2-carbonyl]-1-piperidyl]pyrimidin-4-yl]oxazolidin-2-one], the pIC50 was 8.30.

In the case of `Cc1nc([C@@H]2CCON2C(=O)C2CCN(c3cc(-n4ccnc4C)ncn3)CC2)cs1` [Example 7, [1-[6-(2-methylimidazol-1-yl)pyrimidin-4-yl]-4-piperidyl]-[(3S)-3-(2-methylthiazol-4-yl)isoxazolidin-2-yl]methanone], the pIC50 is 8.05.

For `Cc1ccc([C@@H]2CCON2C(=O)C2CCN(c3ncc(F)c(-n4cccn4)n3)CC2)cn1` [Example 10, [1-(5-fluoro-4-pyrazol-1-yl-pyrimidin-2-yl)-4-piperidyl]-[(3S)-3-(6-methyl-3-pyridyl)isoxazolidin-2-yl]methanone], the pIC50 was 8.40.

Regarding `O=C(C1CCN(c2nc(-c3ncco3)ncc2F)CC1)N1OCC[C@H]1c1cnccn1` [Example 13, [1-(5-fluoro-2-oxazol-2-yl-pyrimidin-4-yl)-4-piperidyl]-[(3S)-3-pyrazin-2-ylisoxazolidin-2-yl]methanone], the pIC50 is 7.57.

With `Cc1ccc([C@@H]2CCON2C(=O)C2CCN(c3nccc(-c4ccnn4C)n3)CC2)cn1` [Example 15, [1-[4-(2-methylpyrazol-3-yl)pyrimidin-2-yl]-4-piperidyl]-[(3S)-3-(6-methyl-3-pyridyl)isoxazolidin-2-yl]methanone], the pIC50 was 9.00.

In the case of `Cc1cnn(-c2cc(N3CCC(C(=O)N4OCC[C@H]4c4ccc(C)nc4)CC3)ncn2)c1` [Example 17, [1-[6-(4-methylpyrazol-1-yl)pyrimidin-4-yl]-4-piperidyl]-[(3S)-3-(6-methyl-3-pyridyl)isoxazolidin-2-yl]methanone], the pIC50 was 7.41.

`Cc1ccc([C@@H]2CCON2C(=O)C2CCN(c3cc(-c4ccnn4C)ncn3)CC2)cn1` [Example 18, [1-[6-(2-methylpyrazol-3-yl)pyrimidin-4-yl]-4-piperidyl]-[(3S)-3-(6-methyl-3-pyridyl)isoxazolidin-2-yl]methanone]: the pIC50 was 7.15.

In the case of `Cc1cn(-c2nc(N3CCC(C(=O)N4OCC[C@H]4c4cnccn4)CC3)ncc2F)c(C)n1` [Example 22, [1-[4-(2,4-dimethylimidazol-1-yl)-5-fluoro-pyrimidin-2-yl]-4-piperidyl]-[(3S)-3-pyrazin-2-ylisoxazolidin-2-yl]methanone], the pIC50 is 8.70.

For `Cc1nccn1-c1ncnc(N2CCC(C(=O)N3OCC[C@H]3c3cnccn3)CC2)n1` [Example 26, (S)-(1-(4-(2-methyl-1H-imidazol-1-yl)-1,3,5-triazin-2-yl)piperidin-4-yl)(3-(pyrazin-2-yl)isoxazolidin-2-yl)methanone], the negative logarithm of the IC50 (pIC50) was 8.30.

With `O=C(C1CCN(c2ncc(F)c(-c3cncs3)n2)CC1)N1OCC[C@H]1c1cnccn1` [Example 27, (S)-(1-(5-fluoro-4-(thiazol-5-yl)pyrimidin-2-yl)piperidin-4-yl)(3-(pyrazin-2-yl)isoxazolidin-2-yl)methanone], the pIC50 is 9.00.

In the case of `Cn1nccc1-c1cc(N2CCC(C(=O)N3OCC[C@H]3c3cnccn3)CC2)ncn1` [Example 28, (S)-(1-(6-(1-methyl-1H-pyrazol-5-yl)pyrimidin-4-yl)piperidin-4-yl)(3-(pyrazin-2-yl)isoxazolidin-2-yl)methanone], the pIC50 was 7.37.

The values above are taken from patent publication US20260234136A1, “ISOXAZOLIDINES AS RIPK1 INHIBITORS AND USE THEREOF” (GENZYME CORPORATION, priority 2023, published 2026).
